Literature values, collected in US12285521B2, “Pharmaceutical formulation” (Klaria Pharma Holding AB, priority 2016, dated 2025).

Assays:
[1] = test system: migraine; conditions: to be achieved within 60 minutes after dosing
[2] = test system: migraine; conditions: subcutaneous administration, 6 mg sumatriptan

For CNS(=O)(=O)Cc1ccc2[nH]cc(CCN(C)C)c2c1 [sumatriptan], the “time of maximum plasma concentration” value (after intranasal administration) is listed as 1 to 1.5 h, the mean intranasal bioavailability (intranasal, after a 20 mg dose) is listed as 15.8% and the mean maximum concentration (intranasal, after a 20 mg dose) is listed as 12.9 ng/mL. For the same compound, the “plasma level for the most reliable migraine-relieving effect” value [1] was “over 9.44 ng/mL” and the “people with pain reduced from moderate or severe to none within two hours” value [2] was about 60%.
